Experimental data from PubChem BioAssay AID330 (DTP/NCI, 2004).
“And” between values parts separate entries of the source, which are not always exact repeats. Equal values may be shown once. Toxic doses and inconclusive results are not listed. Rule for the calls: active = survival T/C of 150% or more; inactive = T/C below 125% in these data. Square brackets hold non-standard residues; d marks the D form. Peptide text beside a SMILES is read from it. * marks the point of attachment. ξ: configuration not given here. Cbz = O=C(OCc1ccccc1)*; ξT = CC(O)C(N)C(=O)O

Tested on: P388 leukemia ip, CD2F1 mice, survival T/C
Assay: NCI In Vivo Anticancer Drug Screen. Data for tumor model P388 Leukemia (intraperitoneal) in CD2F1 (CDF1) mice
Conditions: endpoint: median survival time, higher = longer survival
Outline: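 Mice carrying the transplanted tumor received test compound or vehicle. Survival was recorded in each group, and the value is the treated-group measurement divided by that of the vehicle-treated control group.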

[1] = dose: 50.0 mg/kg/injection, schedule: Q01DX005 (ip), vehicle: Klucel (hydroxypropylcellulose) (HPC)
[2] = dose: 100.0 mg/kg/injection, schedule: Q01DX005 (ip), vehicle: Klucel (hydroxypropylcellulose) (HPC)
[3] = dose: 200.0 mg/kg/injection, schedule: Q01DX005 (ip), vehicle: Klucel (hydroxypropylcellulose) (HPC)
[4] = dose: 60.0 mg/kg/injection, schedule: Q01DX005 (ip), vehicle: saline with Tween-80
[5] = dose: 120.0 mg/kg/injection, schedule: Q01DX005 (ip), vehicle: saline with Tween-80
[6] = dose: 240.0 mg/kg/injection, schedule: Q01DX005 (ip), vehicle: saline with Tween-80
[7] = dose: 50.0 mg/kg/injection, schedule: Q01DX005 (ip), vehicle: saline with Tween-80
[8] = dose: 100.0 mg/kg/injection, schedule: Q01DX005 (ip), vehicle: saline with Tween-80
[9] = dose: 200.0 mg/kg/injection, schedule: Q01DX005 (ip), vehicle: saline with Tween-80
[10] = dose: 12.5 mg/kg/injection, schedule: Q01DX005 (ip), vehicle: saline with Tween-80
[11] = dose: 25.0 mg/kg/injection, schedule: Q01DX005 (ip), vehicle: saline with Tween-80

Measured: T/C

CCCCCCCCCCCCCCCCS(=O)(=O)N/N=c1/sc2ccc(S(=O)(=O)O)cc2n1C
inactive: dose: 50.0 mg/kg/injection, schedule: Q01DX009 (ip), vehicle: Klucel (hydroxypropylcellulose) (HPC) 115 % of control | dose: 100.0 mg/kg/injection, schedule: Q01DX009 (ip), vehicle: Klucel (hydroxypropylcellulose) (HPC) 102 % of control | dose: 200.0 mg/kg/injection, schedule: Q01DX009 (ip), vehicle: Klucel (hydroxypropylcellulose) (HPC) 94 % of control

CC(O)C(NC(=O)OCc1ccccc1)C(=O)NCC(N)=O (configuration not stated) (Cbz-[ξT]-Gly-NH2)
inactive: [1] 101 % of control | [2] 115 % of control | [3] 101 % of control

COc1cc(-c2nn3c(C)c(-c4ccccc4)nc3s2)cc(OC)c1OC
inactive: [4] 101 % of control | [5] 92 % of control | [6] 102 % of control

CC(C)(C)c1ccc(C(=O)NCSCC(NC(=O)CCC(N)C(=O)O)C(=O)NCC(=O)O)cc1 (configuration not stated)
inactive: [4] 98 % of control | [5] 104 % of control | [6] 86 % of control

COc1cc(O)c(C(C)c2ccccc2)cc1N=O (configuration not stated)
inactive: [7] 92 % of control | [8] 87 % of control | [9] 92 % of control

CCOc1ccc(NC(=O)C(C(C)N2CCCCC2)N2CCCCC2)cc1 (configuration not stated)
inactive: dose: 12.5 mg/kg/injection, schedule: Q01DX009 (ip), vehicle: saline 93 % of control | dose: 25.0 mg/kg/injection, schedule: Q01DX009 (ip), vehicle: saline 87 % of control

N#Cc1c2ccccc2nc2ccccc12
inactive: [7] 100 % of control | [8] 96 % of control | [9] 89 % of control

CC1(/C=C/Cl)CC(Cl)(CBr)C(Cl)CC1Cl (configuration not stated)
inactive: dose: 8.75 mg/kg/injection, schedule: Q01DX005 (ip), vehicle: Klucel (hydroxypropylcellulose) (HPC) 97 % of control | dose: 17.5 mg/kg/injection, schedule: Q01DX005 (ip), vehicle: Klucel (hydroxypropylcellulose) (HPC) 91 % of control | dose: 35.0 mg/kg/injection, schedule: Q01DX005 (ip), vehicle: Klucel (hydroxypropylcellulose) (HPC) 97 % of control | dose: 70.0 mg/kg/injection, schedule: Q01DX005 (ip), vehicle: Klucel (hydroxypropylcellulose) (HPC) 91 % of control

CCCC1OP(=O)(N(CCOC(C)=O)CCOC(C)=O)OCC1CC (configuration not stated)
inactive: [1] 96 % of control | [2] 98 % of control | [3] 96 % of control

CC(=O)C1=C(C)O/C(=C/c2cccc(Cl)c2)C1=O
inactive: [10] 107 % of control | [11] 118 % of control | [7] 120 % of control and 121 % of control | [8] 118 % of control | [9] 119 % of control

CC(=O)OC1OC(CO)C(OCc2ccccc2)C(OCc2ccccc2)C1OC(C)=O (configuration not stated)
inactive: dose: 4.0 mg/kg/injection, schedule: Q01DX009 (ip), vehicle: other 116 % of control | dose: 8.0 mg/kg/injection, schedule: Q01DX009 (ip), vehicle: other 104 % of control | dose: 16.0 mg/kg/injection, schedule: Q01DX009 (ip), vehicle: other 100 % of control | dose: 32.0 mg/kg/injection, schedule: Q01DX009 (ip), vehicle: other 92 % of control | dose: 50.0 mg/kg/injection, schedule: Q01DX009 (ip), vehicle: other 99 % of control | dose: 64.0 mg/kg/injection, schedule: Q01DX009 (ip), vehicle: other 98 % of control | dose: 100.0 mg/kg/injection, schedule: Q01DX009 (ip), vehicle: other 99 % of control | dose: 200.0 mg/kg/injection, schedule: Q01DX009 (ip), vehicle: other 99 % of control | dose: 400.0 mg/kg/injection, schedule: Q01DX009 (ip), vehicle: other 99 % of control

OC1CCCCC1C1CCCCC1O (configuration not stated)
inactive: dose: 100.0 mg/kg/injection, schedule: Q01DX001 (ip), vehicle: saline with Tween-80 105 % of control | dose: 200.0 mg/kg/injection, schedule: Q01DX001 (ip), vehicle: saline with Tween-80 99 % of control | dose: 400.0 mg/kg/injection, schedule: Q01DX001 (ip), vehicle: saline with Tween-80 104 % of control

O=C(NNc1ccccc1)NN(C(=O)Nc1cccc(Cl)c1)c1ccccc1
inactive: [1] 96 % of control | [2] 104 % of control | [3] 100 % of control

CC1CCC2C(C)C3C(CC4C5CC=C6CC(OC7OC(CO)C(O)C(OC8OC(CO)C(O)C(O)C8O)C7OC7OC(C)C(O)C(O)C7O)CCC6(C)C5CCC43C)N2C1 (configuration not stated)
inactive: dose: 6.25 mg/kg/injection, schedule: Q01DX005 (ip), vehicle: Klucel (hydroxypropylcellulose) (HPC) 91 % of control | dose: 12.5 mg/kg/injection, schedule: Q01DX005 (ip), vehicle: Klucel (hydroxypropylcellulose) (HPC) 95 % of control | dose: 25.0 mg/kg/injection, schedule: Q01DX005 (ip), vehicle: Klucel (hydroxypropylcellulose) (HPC) 89 % of control | dose: 25.0 mg/kg/injection, schedule: Q04DX003 (ip), vehicle: suspension in saline 98 % of control | dose: 50.0 mg/kg/injection, schedule: Q04DX003 (ip), vehicle: suspension in saline 96 % of control | dose: 100.0 mg/kg/injection, schedule: Q04DX003 (ip), vehicle: suspension in saline 105 % of control

CC1(C)C=CC2=C(O1)C(=O)c1ccccc1C2=O
inactive: dose: 25.0 mg/kg/injection, schedule: Q01DX009 (ip), vehicle: water 101 % of control | dose: 50.0 mg/kg/injection, schedule: Q01DX009 (ip), vehicle: water 107 % of control | dose: 100.0 mg/kg/injection, schedule: Q01DX009 (ip), vehicle: water 115 % of control | dose: 200.0 mg/kg/injection, schedule: Q01DX009 (ip), vehicle: water 110 % of control

O=c1cc(CC2(O)CCCCC2)c2ccccc2[nH]1
inactive: dose: 60.0 mg/kg/injection, schedule: Q01DX005 (ip), vehicle: Klucel (hydroxypropylcellulose) (HPC) 95 % of control | dose: 120.0 mg/kg/injection, schedule: Q01DX005 (ip), vehicle: Klucel (hydroxypropylcellulose) (HPC) 102 % of control | dose: 240.0 mg/kg/injection, schedule: Q01DX005 (ip), vehicle: Klucel (hydroxypropylcellulose) (HPC) 95 % of control

CC1CC(=O)CCC2(C)C(OC(C)(C)C)CCC12 (configuration not stated)
inactive: [1] 100 % of control | [2] 99 % of control | [3] 99 % of control

COC(=O)CCCOCCCC(=O)OC
inactive: dose: 50.0 mg/kg/injection, schedule: Q01DX009 (ip), vehicle: saline 95 % of control | dose: 100.0 mg/kg/injection, schedule: Q01DX009 (ip), vehicle: saline 99 % of control

N=C(N)c1ccc(N=NNc2ccc(C(=N)N)cc2)cc1
inactive: dose: 12.5 mg/kg/injection, schedule: Q01DX005 (ip), vehicle: Klucel + Tween-80 94 % of control | [10] 96 % of control | dose: 25.0 mg/kg/injection, schedule: Q01DX005 (ip), vehicle: Klucel + Tween-80 98 % of control | dose: 50.0 mg/kg/injection, schedule: Q01DX005 (ip), vehicle: Klucel + Tween-80 100 % of control

C/C=C(\C)C(=O)N/N=C/c1cccc(OC)c1O
inactive: [1] 95 % of control | [2] 92 % of control | [3] 96 % of control

Fc1cccc(NC(=S)SCc2ccco2)c1
inactive: dose: 50.0 mg/kg/injection, schedule: Q01DX009 (ip), vehicle: suspension in saline 93 % of control | dose: 100.0 mg/kg/injection, schedule: Q01DX009 (ip), vehicle: suspension in saline 90 % of control | dose: 200.0 mg/kg/injection, schedule: Q01DX009 (ip), vehicle: suspension in saline 107 % of control

O=c1[nH]c2cc(Cl)ccc2nc1C1=C(O)c2ccccc2C1
inactive: [4] 89 % of control | [5] 89 % of control | [6] 110 % of control

C=C(C)C1Cc2c(ccc3c2OC2COc4cc(OC)c(OC)cc4C2C3=O)O1 (configuration not stated)
inactive: dose: 100.0 mg/kg/injection, schedule: Q01DX009 (ip), vehicle: saline with Tween-80 86 % of control | dose: 200.0 mg/kg/injection, schedule: Q01DX009 (ip), vehicle: saline with Tween-80 95 % of control | dose: 400.0 mg/kg/injection, schedule: Q01DX009 (ip), vehicle: saline with Tween-80 95 % of control

O=C1C=C2c3ccccc3CC(C(=O)O)C2CC1 (configuration not stated)
inactive: [4] 100 % of control | [5] 100 % of control | [6] 102 % of control

O=S(=O)(O)O.[Fe]
inactive: dose: 12.5 mg/kg/injection, schedule: Q01DX009 (ip), vehicle: saline with Tween-80 95 % of control | dose: 25.0 mg/kg/injection, schedule: Q01DX009 (ip), vehicle: saline with Tween-80 95 % of control | dose: 50.0 mg/kg/injection, schedule: Q01DX009 (ip), vehicle: saline with Tween-80 86 % of control

COC(=O)C1=CC(=O)N2C(=Nc3cccc4cccc2c34)S1
inactive: dose: 6.25 mg/kg/injection, schedule: Q01DX005 (ip), vehicle: saline with Tween-80 91 % of control | [10] 94 % of control | [11] 103 % of control | [8] 99 % of control | [9] 103 % of control
